# According to patent US8409825B2, “Method for high-level secretory production of protein” (National Institute of Advanced Industrial Science and …, priority 2007, dated 2013):
# Like-named read-outs stand apart in the source and are kept apart here.
# Assays:
# [1] = test system: S. cerevisiae ZUO1/YGR285C strain; conditions: control strain
# Method: The S. cerevisiae ZUO1/YGR285C strain was sowed in 5 ml of YPAD medium (YPD medium containing 0.04% adenine (Sigma)), and yeast cells resulting from overnight culture at 30° C. and 310 rpm were used.
# ST medium (500 μl) (Yeast Nitrogen Base and Ammonium sulfate medium containing 2% glucose, 0.04% adenine, and 0.3M KCl and lacking uracil and leucine (Sigma)) was applied onto a 96-deep well plate (Greiner, 780271), the transformant was sowed with the use of a toothpick, the top of the plate was sealed with CO2-permeable plate sealers (Greiner, 676051), and culture was carried out at an agitation speed of 310 rpm, an amplitude of 50 mm, at 30° C. for 3 days. Control culture was carried out by applying 1 ml of YPAD medium to a 96-deep well plate (Greiner, 780271). […] The culture solution that had been cultured in ST medium was sowed to a final concentration of 5%, and the top of the plate was sealed with CO2-permeable plate sealers (Greiner, 676051). Thereafter, culture was carried out at an agitation speed of 310 rpm, an amplitude of 50 mm, at 30° C. for 3 days. The culture supernatant was prepared from the culture solution and it was designated as a sample containing an antibody secreted and produced by yeast. […]
# [2] = test system: antibody-producing yeast strain (ona02306 strain); conditions: for amount of antibody production: control 0.8 mg/l, FIG. 5
# Method: Control culture was carried out at an agitation speed of 310 rpm, an amplitude of 50 mm, at 30° C. for 2 days, 100 μl of 2× YP-P6-GG medium was added, and 100 μl of 2× YP-P6-GG medium was further added on day 3. In the case of culture involving single addition of a rhodanine-3-acetic acid derivative 1c, culture was carried out at an agitation speed of 310 rpm, an amplitude of 50 mm, at 30° C. for 2 days, 100 μl of 2× YP-P6-GG medium was added, and 100 μl of 2× YP-P6-GG medium containing 20 μM of 1c was further added on day 3. In the case of culture involving addition of a rhodanine-3-acetic acid derivative 1c twice, culture was carried out at an agitation speed of 310 rpm, an amplitude of 50 mm, at 30° C. for 2 days, 100 μl of 2× YP-P6-GG medium containing 20 μM of 1c was added, and 100 μl of 2× YP-P6-GG medium containing 20 μM of 1c was further added on day 3.
# Yeast cells were removed from the culture product via centrifugation at 2,700×g and 4° C. for 5 minutes, and the resulting culture supernatant was designated as a sample of secreted antibody. The secreted and produced antibodies were subjected to quantitative assay via sandwich ELISA. TRAIL receptor proteins that were antigens of the anti-TRAIL receptor antibodies were adsorbed on a 96-well plate, the sample of secreted antibody was added, and detection was carried out using a peroxidase-labeled human IgG specific Fc antibody (Peroxidase-labeled affinity purified antibody to human IgG (Fc) (KPL, 04-10-20)) and the ABTS peroxidase substrate (KPL, 50-66-01).
# Western blotting was carried out as follows. After the protein was subjected to SDS-PAGE under reducing and non-reducing conditions, the separated protein was blotted to a PVDF membrane, and the antibody heavy chain and the light chain were detected using Anti-human IgG (γ-chain specific) (Sigma, I-3382) and Goat anti human kappa b&f affinity purified (Bethyl, A-80-115A) as the primary antibodies. Peroxidase conjugated affinity purified anti-goat IgG (H&L) (Rabbit) (Rockland, #605-4313) was used as the secondary antibody. […]
# [3] = test system: O. minuta PMT4-deficient strain (ona98808 strain); conditions: 0.25 μM 1c (final concentration), FIG. 26
# Method: The antibody-producing strain was cultured in the following manner. With the use of 2× YP-P6-GG medium (the medium was prepared by dissolving 20 g of Difco yeast extract and 40 g of Bacto peptone in 900 ml of pure water, sterilizing the solution via steaming under pressure, and adding 100 ml of separately sterilized 10× phosphate buffer (pH 6.0) (1M KH2PO4, 0.15M (NH4)2SO4, 0.375N KOH), 10 ml of a separately sterilized 50% glucose solution, and 25 ml of separately sterilized 80% glycerine), 800 μl of 2× YP-P6-GG medium was introduced into a 96-deep well plate (Greiner, 780271), the strains were sowed with the use of a toothpick, and the top of the plate was sealed with CO2-permeable plate sealers (Greiner, 676051). […]
# Yeast cells were removed from the culture product via centrifugation at 2,700×g and 4° C. for 5 minutes, and the resulting culture supernatant was designated as a sample of secreted antibody. The secreted and produced antibodies were subjected to quantitative assay via sandwich ELISA. […] After the protein was subjected to SDS-PAGE under reducing and non-reducing conditions, the separated protein was blotted to a PVDF membrane, and the antibody heavy chain and light chain were detected using Anti-human IgG (γ-chain specific) (Sigma, I-3382) and Goat anti human kappa b&f affinity purified (Bethyl, A-80-115A) as the primary antibodies. […]
substance,measurement,setting,value
"5-[[3,4-(1-phenylmethoxy)phenyl]methylene]-4-oxo-2-thioxo-3-thiazolidineacetic acid [rhodanine-3-acetic acid derivative 1c]",increase of amount of antibody secretory production when addition of an O-sugar chain was suppressed,"[1]; 1c final concentration 10 μM, versus control culture",approximately 2.5 times
same,amount of antibody secretory production,"[1]; O-sugar chain addition suppressed (1c final concentration 10 μM), without 1c 3.9 ng/ml, FIG. 14",10 ng/mL
same,"high-molecular-weight antibody heavy chain (Western blot, reducing electrophoresis)","[2]; addition of PMT inhibitors to culture, FIG. 6",decreased
same,amount of antibody production,[2]; addition of PMT inhibitors twice (100 μl medium containing 20 μM 1c on day 2 and day 3),approximately 1.9 mg/l
same,amount of antibody production,[2]; single addition of PMT inhibitors (100 μl medium containing 20 μM 1c on day 3),approximately 1.7 mg/l
same,improvement of the amount of production,[3],approximately 13%
